The subject of data set [1] is porcine NP and AF. The data set is described as follows: Macroscopic and histological evaluation of porcine IVD after intradiscal or external LA (series 1 and 2). Particulars: pig. Type of data set: in vivo. Here is the method:
The pigs were placed on the right side. A 6 cm long incision was made from the costal arch to the iliac crest, just lateral to the lateral processes. The lumbar IVDs were approached by a retroperitoneal technique. The L3/4 IVD was incised and 0.2 mL of the LA-formulation (n=6) or the placebo (n=2) was injected under fluoroscopic guidance. The LA-formulation was composed of LA (120 mg/mL) and iohexol (180 mg I/mL) while placebo consisted of iohexol only. The concentration was determined based on the pilot experiments on the effects of LA on collagen secretion from human NP cells (as described in WO 2017/046030). In this set of in vivo experiments, the pH of the placebo formulation was adjusted to the same as the active formulation (about 1.5) using hydrochloric acid. The adjacent IVDs were not injected and served as negative controls. The volume of the pig NP is about 1 mL and it was estimated that 0.2 mL would be an appropriate injection volume. The height and width of normally appearing NP (FIG. 6a) in the anteroposterior (short vertical double arrow) and bilateral (short horizontal double arrow) directions, respectively, were measured and expressed in relation to the height (long vertical double arrow), and width (long horizontal double arrow) of the IVD. […] The group data for NP height as percent of total IVD height are shown in FIG. 7 and the corresponding data for NP width are illustrated in FIG. 8. Further, the IVD was cut in half and photographed. The bilateral width and anteroposterior height of normally appearing NP was measured and expressed as percent of the total IVD width and height, respectively, as depicted in FIGS. 7 and 8. The aim of the second series (including 16 pigs) was to assess the safety and efficacy of the treatment and was part of the regulatory documentation required by the Swedish Medical Products Agency to initiate studies in humans. All procedures were as described above, with the following exceptions. […] In one group of animals, LA or placebo was applied onto the IVD outside the spinal foramen (external application) to assess any tissue damage resulting from leakage from the IVD or a misdirected injection. Due to this experimental design, spinal flexural stiffness was not measured in these pigs. The only other difference between the two series was that exposed tissues were evaluated histologically in the second but not first series. The lumbar spine was removed en bloc and any pathological changes were assessed macroscopically and photographed in extradiscal tissue onto which LA had been applied. Specimens of spinal nerves and muscle tissue were collected, fixed in 10% formalin, and processed for microscopy with hematoxylin/eosin staining. Injected IVDs were cut in half, inspected macroscopically, and photographed. Samples of the IVD were collected and processed for microscopy with hematoxylin/eosin. These turned out to include AF but very little NP so in order to obtain an improved overview of the IVD, the IVDs with adhering vertebrae were decalcified to enable preparation of axial sections of the whole IVD which were stained with Massons's trichrome. FIG. 9 illustrates effects of LA on the AF (A,B) and NP (C-J). LA or placebo (0.2 mL) was injected into IVDs of anesthetized pigs. The animals were sacrificed 4 or 12 weeks post injection and the IVDs were sectioned in half. After fixation in 10% formalin, decalcification and paraffin embedding, sections were cut at 5 μm and stained with hematoxylin&eosin (A,B) or Masson's trichrome (C-J). Fibrocartilagenous cells can be seen in the AF from untreated IVDs (arrows in A) but frequently, multicellular chondrons appeared after injection of LA (240 mg/mL, 12 weeks survival; arrows in B). NP of an untreated (extradiscal injection) IVD (C) consists of islets of notochordal cells (asterisk) embedded in weakly stained extracellular matrix. In LA-treated NP, collagenous fibers can be seen (asterisks in D; 120 mg/mL LA, 4 weeks survival and E; 120 mg/mL LA, 12 weeks survival). […]

Data set [2] deals with patients with chronic discogenic low back pain. Put plainly: Clinical study, exploratory VAS back and leg pain and ODI. Type of data set: in vivo, human. The source says:
Scoring of visual analog scale (VAS) for both back and leg pain and Oswestry Disability Index (ODI) were used as exploratory objectives. The sample size was not based on power calculations but was considered appropriate for a single ascending dose study to provide initial safety data on 3 different dose levels of the LA formulation. The study has been registered on the ClinicalTrials.gov website and on the EU Clinical Trials Register. It was approved by the Stockholm Regional Ethics Committee (approval No. 2016-2323-31/4) and by the Swedish Medical Products Agency (approval No. 5.1-2016-86227).
Disability was evaluated using the ODI.

Where “and” joins values, the source holds several entries; their conditions need not be identical. Identical values can stand only once.

Here are results for one molecule from patent publication US20240415790A1, “A COMPOSITION FOR USE IN THE TREATMENT OF INTERVERTEBRAL DISC HERNIATION” (STAYBLE THERAPEUTICS AB, priority 2020, published 2024).

On to `CC(O)C(=O)O` (stereo not drawn) [LA, lactic acid], for which, in data set [1] (28-day follow-up, external 120 mg/mL), the “Fibrotic changes at sites of extradiscal administration” value is given as “No fibrotic changes”. Besides, the “Histological changes of the NP” value in data set [1] (28-day follow-up, intradiscal 120 or 240 mg/mL) is “Dense bundles of fibrotic tissue”; in data set [1] (84-day follow-up, intradiscal 120 or 240 mg/mL), “sclerosis (FIG. 9D-J), cystic degeneration (FIG. 9J), cartilaginous metaplasia (FIG. 9F, 9G), osteoid islands (FIG. 9F, 9G) and reduction in the extracellular matrix”; in data set [1] (two days after intradiscal injection) it was “marked histological changes characterized by lysis of the extracellular matrix”. The “NP size (macroscopic)” value in data set [1] (28 and 84 days after LA treatment vs normally appearing NP) is reported as “reduction in NP size”. In addition, in data set [1] (two-day follow up, intradiscal injection), the “Hemorrhage and inflammatory changes, LA vs vehicle” value is given as “not obviously more marked”. Further, the “Leg pain (VAS) at baseline” value in data set [2] (45 mg group, baseline) is reported as “no leg pain”. Moreover, the “Mean leg pain at screening” value is 3 mm in data set [2] (90 mg group) and 14 mm in data set [2] (180 mg group). Moreover, the “VAS (mm) for cLBP, Mean (SD)” value is 19 mm and 19 (10) mm in data set [2] (LA 45 mg, Visit 1 (Screening), baseline); 22 (8) mm in data set [2] (LA 45 mg, Visit 5 (3 months)); 52 (28) mm in data set [2] (LA 45 mg, Visit 6 (6 months)); 59 (40) mm in data set [2] (LA 45 mg, Visit 7 (12 months)); 44 mm and 44 (25) mm in data set [2] (LA 90 mg, Visit 1 (Screening), baseline); 44 (22) mm in data set [2] (LA 90 mg, Visit 5 (3 months)). The “VAS (mm) for cLBP, Mean (SD)” value in data set [2] (LA 90 mg, Visit 6 (6 months)) is 44 (6) mm; in data set [2] (LA 90 mg, Visit 7 (12 months)), 34 (14) mm; in data set [2] (LA 180 mg, Visit 1 (Screening), baseline) it was 52 mm and 52 (18) mm; in data set [2] (LA 180 mg, Visit 5 (3 months)), 27 (15) mm; in data set [2] (LA 180 mg, Visit 6 (6 months)) it was 28 (32) mm; in data set [2] (LA 180 mg, Visit 7 (12 months)), 61 (26) mm.
